From patent US20240336595A1, “BIFUNCTIONAL COMPOUNDS FOR DEGRADING BTK WITH DIMINISHED IMID ACTIVITY” (NURIX THERAPEUTICS, INC., priority 2021, published 2024) come the findings set out here.

Each structure is given as a SMILES string.

One assay concerns Aiolos. Nature of the assay: IMiD activity: Aiolos degradation in PBMCs by flow cytometry. Type of assay: cell-based. To be noted: human PBMCs, 24 hours; for DC50: compound concentration degrading 50% of Aiolos; for Dmax: maximum percent Aiolos degradation in the assay. As to the method:
In addition, Compounds 1-24 were assayed for IMiD activity. Frozen human peripheral blood mononuclear cells (PBMCs) were thawed and treated with DMSO or compound for 24 hours and then fixed and permeabilized using a Foxp3/Transcription Factor Fixation/Permeabilization Kit (eBioscience, 00-5523). Cells were stained with fluorophore-conjugated antibodies against CD20 (Biolegend 302330), CD3 (BD Pharmingen 552127), and Aiolos (Biolegend 371106). An additional set of DMSO-treated PBMCs was stained for CD20, CD3, and an AlexaFluor 647-conjugated mouse IgG1 isotype control antibody (Biolegend 400136). Stained cells were run on an Attune NxT Acoustic Focusing Flow Cytometer (Thermo-Fisher A29004), and data was analyzed using FlowJo (v10.5.3) and GraphPad Prism (v7.00) software. Single lymphocytes were gated for B cells (CD20+CD3-) and T cells (CD3+CD20-), and the geometric mean fluorescence intensity (MFI) of Aiolos was calculated for each population. The MFI of the isotype control was calculated for each population and used to quantify background staining. Percent Aiolos degradation was calculated for each compound-treated sample using the following equation: […]
DC50 is the compound concentration degrading 50% of Aiolos. Dmax is the maximum percent Aiolos degradation in the assay.
(In general: In flow cytometry, cells or beads pass a laser one at a time.)

Assay [1] has as its system Experimental autoimmune encephalomyelitis (EAE). Nature of the assay: Experimental autoimmune encephalomyelitis (EAE) model. The conditions noted are these: EAE, 30 mg/kg, spinal cords collected on day 22. Type of assay: in vivo, C57BL/6 mice. As to the method: EAE was induced in C57BL/6 mice by immunization with an emulsion of MOG1-125 in complete Freund's adjuvant (CFA), followed by administration of pertussis toxin in PBS, first on the day of immunization (Day 0) and then again the following day (Day 1).
Dosing of all mice started on Day −1 and continued through Day 22. Fingolimod (FTY720, Gilenya) is the a commonly used positive control in this model.
Statistical significance was determined between vehicle control and treated groups based on the end clinical scores using Wilcoxon's non-parametric test.
Statistical analysis: Demyelination (anti-MBP) with Wilcoxon's non-parametric test; inflammatory foci or apoptosis with two-tailed Student's t-test.

In the assay on Aiolos, `NC(=O)c1ncc(N2CCCCC2)nc1Nc1ccc(N2CCC3(CCN(Cc4ccc5c(c4)C(=O)N(C4CCC(=O)NC4=O)C5=O)CC3)CC2)cc1` (centres unmarked) [Compound 14] came in with a DC50 of 37.6 nM and a Dmax of 30.4%. In the assay with Aiolos, `CN1CCN([C@@H]2CCCN(c3cnc(C(N)=O)c(Nc4ccc(N5CCC6(CCCN(c7ccc8c(c7)C(=O)N(C7CCC(=O)NC7=O)C8=O)C6)CC5)cc4)n3)C2)C1=O` (some centres unmarked) [Compound 18] came in with a DC50 of 2650 nM and a Dmax of 28.2%. In turn, `Cn1c(=O)n([C@@H]2CCC(=O)NC2=O)c2ccc(N3CC[C@H](CN4CCC(c5ccc(Nc6nc(N7CCCCC7)cnc6C(N)=O)cc5)CC4)C3)cc21` [Compound 6] had a Dmax in the assay on Aiolos of 1.1%. In the assay on Aiolos, `CN1CCN([C@@H]2CCCN(c3cnc(C(N)=O)c(Nc4ccc(C5CCN(CC6CCN(c7ccc(C(=O)N[C@@H]8CCC(=O)NC8=O)nc7)CC6)CC5)cc4)n3)C2)C1=O` [Compound 2] had a DC50 of 596 nM and a Dmax of 17.9%.

Take `CN1CCN([C@@H]2CCCN(c3cnc(C(N)=O)c(Nc4ccc(N5CCN(C(=O)CCOCCCc6ccc7c(c6)C(=O)N(C6CCC(=O)NC6=O)C7)CC5)cc4)n3)C2)C1=O` (some centres unmarked) [Compound 19]: in the assay with Aiolos, the Dmax came to 9.1%. In the assay on Aiolos, `CN1CCN([C@@H]2CCCN(c3cnc(C(N)=O)c(Nc4ccc(C5CCN(C[C@H]6CC[C@@H](Nc7cccc8c7C(=O)N([C@@H]7CCC(=O)NC7=O)C8=O)CC6)CC5)cc4)n3)C2)C1=O` (racemic) [Compound 9, 5-[(3R)-3-(3-methyl-2-oxoimidazolidin-1-yl)piperidin-1-yl]-3-{[4-(1-{[(1 s,4s)-4-{[2-(2,6-dioxopiperidin-3-yl)-1,3-dioxoisoindol-4-yl]amino}cyclohexyl]methyl}piperidin-4-yl)phenyl]amino}pyrazine-2-carboxamide] returned a DC50 of 96.6 nM and a Dmax of 30.8%. In the case of `CN1CCN([C@@H]2CCCN(c3cnc(C(N)=O)c(Nc4ccc(C5CCN(CC6CCN(c7ncc(C(=O)NC8CCC(=O)NC8=O)o7)CC6)CC5)cc4)n3)C2)C1=O` (some centres unmarked) [Compound 11], the Dmax with Aiolos worked out at 1.9%. `CN1CCN([C@@H]2CCCN(c3cnc(C(N)=O)c(Nc4ccc(C5CCN(CC6CCN(c7cnc(C(=O)NC8CCC(=O)NC8=O)nc7)CC6)CC5)cc4)n3)C2)C1=O` (mixture of isomers) [Compound 3, 5-(4-((4-(4-((3-carbamoyl-6-((R)-3-(3-methyl-2-oxoimidazolidin-1-yl)piperidin-1-yl)pyrazin-2-yl)amino)phenyl)piperidin-1-yl)methyl)piperidin-1-yl)-N—((RS)-2,6-dioxopiperidin-3-yl)pyrimidine-2-carboxamide] yielded a Dmax in the assay with Aiolos of 3.2%.

In the assay on Aiolos, `CN1CCN([C@@H]2CCCN(c3cnc(C(N)=O)c(Nc4ccc(C5CCN(CC6CCN(c7ccc(OC8CCC(=O)NC8=O)cn7)CC6)CC5)cc4)n3)C2)C1=O` (some centres unmarked) [Compound 13] returned a DC50 of 2.89 nM and a Dmax of 4.9%. Regarding `NC(=O)c1ncc(N2CCCCC2)nc1Nc1ccc2c(c1)CCN(CC1CCN(c3ccc(C(=O)NC4CCC(=O)NC4=O)nc3)CC1)C2` (racemic) [Compound 4, rac-3-[(2-{[1-(6-{[(3R)-2,6-dioxopiperidin-3-yl]carbamoyl}pyridin-3-yl)piperidin-4-yl]methyl}-3,4-dihydro-1H-isoquinolin-6-yl)amino]-5-(piperidin-1-yl)pyrazine-2-carboxamide], in the assay with Aiolos, the DC50 is 344 nM and the greatest degradation seen (Dmax) came to 28.3%. On to `CN1CCN([C@@H]2CCCN(c3cnc(C(N)=O)c(Nc4ccc(C5(C)CCN(C6CN(Cc7ccc8c(c7)C(=O)N(C7CCC(=O)NC7=O)C8=O)C6)CC5)cc4)n3)C2)C1=O` (some centres unmarked) [Compound 16], for which the Dmax in the assay with Aiolos turned out to be 23.6%.

As to `Cn1c(=O)n([C@@H]2CCC(=O)NC2=O)c2ccc(N3CC[C@@H](CN4CCC(c5ccc(Nc6nc(N7CCCCC7)cnc6C(N)=O)cc5)CC4)C3)cc21` [Compound 7], in the assay with Aiolos, the Dmax came to 4.6%.

For `C=CC(=O)N1CCC[C@@H](n2nc(-c3ccc(Oc4ccccc4)cc3)c3c(N)ncnc32)C1` [Ibrutinib, reference compound], in assay [1], the “Apoptotic cells/section +/− SD” value was 0.4 +/− 0.7 and the “Inflammatory foci/section +/− SD” value is listed as 1.0 +/− 1.4. Further, in assay [1] (anti-MBP), the “Demyelination score +/− SD” value is 0.4 +/− 0.6. On to `CN1CCN([C@@H]2CCCN(c3cnc(C(N)=O)c(Nc4ccc(C5CCN(C[C@@H]6CCN(c7ccc8c(c7)n(C)c(=O)n8C7CCC(=O)NC7=O)C6)CC5)cc4)n3)C2)C1=O` (mixture of isomers) [Compound 8, 3-((4-(1 (((3 S)-1-(1-(2,6-dioxopiperidin-3-yl)-3-methyl-2-oxo-2,3-dihydro-1H-benzo[d]imidazol-5-yl)pyrrolidin-3-yl)methyl)piperidin-4-yl)phenyl)amino)-5-((R)-3-(3-methyl-2-oxoimidazolidin-1-yl)piperidin-1-yl)pyrazine-2-carboxamide], for which the Dmax with Aiolos is recorded as 1.0%. In the case of `CN1CCN([C@@H]2CCCN(c3cnc(C(N)=O)c(Nc4ccc(C5CCN(CC6CCN(c7ccc8c(c7)n(C)c(=O)n8C7CCC(=O)NC7=O)CC6)CC5)cc4)n3)C2)C1=O` (some centres unmarked) [Compound 12], the Dmax in the assay with Aiolos was determined as 5.3%. Turning to `NC(=O)c1ncc(N2CCCCC2)nc1Nc1ccc(C2CCN(CC3CCN(c4ccc(CC5CCC(=O)NC5=O)cn4)CC3)CC2)cc1` (centres unmarked) [Compound 10], in the assay with Aiolos, the Dmax is 3.2%. In the assay with Aiolos, `CN1CCN([C@H]2CCCN(c3cnc(C(N)=O)c(Nc4ccc(N5CCN(CC#Cc6cccc7c6CN(C6CCC(=O)NC6=O)C7=O)CC5)cc4)n3)C2)C1=O` (some centres unmarked) [Compound 17] returned a Dmax of 15.1%.

In the assay on Aiolos, `CN1CCN([C@H]2CCCN(c3cnc(C(N)=O)c(Nc4ccc(C5CCN(CC6CCN(c7ccc(C(=O)NC8CCC(=O)NC8=O)nc7)CC6)CC5)cc4)n3)C2)C1=O` (some centres unmarked) [Compound 15] came in with a DC50 of 345 nM and a Dmax of 27.4%. In the same order, the values of `CN1CCN([C@@H]2CCCN(c3cnc(C(N)=O)c(Nc4ccc(C5CCN(CC6CCN(c7ccc(C(=O)NC8CCC(=O)NC8=O)cc7)CC6)CC5)cc4)n3)C2)C1=O` (mixture of isomers) [Compound 5, 3-((4-(1-((1-(4-(((RS)-2,6-dioxopiperidin-3-yl)carbamoyl)phenyl)piperidin-4-yl)methyl)piperidin-4-yl)phenyl)amino)-5-((R)-3-(3-methyl-2-oxoimidazolidin-1-yl)piperidin-1-yl)pyrazine-2-carboxamide] are 468 nM and 10.1%.

Usually DC50 stands for the concentration giving 50% degradation. High values mean degradation only at high concentration, low ones degradation at low concentration. A word on the Dmax: it is the greatest extent of degradation seen. Low values mean shallow degradation, high ones deep degradation.
